Results published in ChEMBL document CHEMBL3045465, “Development of Selective Ligands for Benzodiazepine Receptor Subtypes by Manipulating the Substituents at Positions 3- and 7- of Optically Active BzR Ligands” (Med Chem Res, 2004).

Key:
[1] = biological target: T1, GABA-A receptor; alpha-3/beta-3/gamma-2 (Homo sapiens, UniProt P18507+P28472+P34903); test: Displacement of [3H]-Ro 15-1788 from Homo sapiens (human) recombinant GABAA alpha3beta3gamma2 receptor expressed in Ltk- cells after 1 hr by liquid scintillation counting; format: cell-based
T1 sequence (P18507 whole entry): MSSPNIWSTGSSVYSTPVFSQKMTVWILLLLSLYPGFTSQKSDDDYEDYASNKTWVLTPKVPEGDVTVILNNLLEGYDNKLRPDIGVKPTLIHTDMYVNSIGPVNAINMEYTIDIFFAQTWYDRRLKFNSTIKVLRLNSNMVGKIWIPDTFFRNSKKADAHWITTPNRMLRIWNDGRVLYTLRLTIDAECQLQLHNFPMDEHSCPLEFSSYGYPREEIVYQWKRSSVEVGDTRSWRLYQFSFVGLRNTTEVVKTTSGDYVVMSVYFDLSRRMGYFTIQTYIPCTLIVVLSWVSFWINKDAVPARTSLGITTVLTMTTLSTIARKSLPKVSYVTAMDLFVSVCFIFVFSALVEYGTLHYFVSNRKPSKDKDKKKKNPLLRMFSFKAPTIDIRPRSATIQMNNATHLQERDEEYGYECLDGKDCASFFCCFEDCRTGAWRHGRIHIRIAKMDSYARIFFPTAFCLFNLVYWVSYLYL
T1 sequence (P28472 whole entry): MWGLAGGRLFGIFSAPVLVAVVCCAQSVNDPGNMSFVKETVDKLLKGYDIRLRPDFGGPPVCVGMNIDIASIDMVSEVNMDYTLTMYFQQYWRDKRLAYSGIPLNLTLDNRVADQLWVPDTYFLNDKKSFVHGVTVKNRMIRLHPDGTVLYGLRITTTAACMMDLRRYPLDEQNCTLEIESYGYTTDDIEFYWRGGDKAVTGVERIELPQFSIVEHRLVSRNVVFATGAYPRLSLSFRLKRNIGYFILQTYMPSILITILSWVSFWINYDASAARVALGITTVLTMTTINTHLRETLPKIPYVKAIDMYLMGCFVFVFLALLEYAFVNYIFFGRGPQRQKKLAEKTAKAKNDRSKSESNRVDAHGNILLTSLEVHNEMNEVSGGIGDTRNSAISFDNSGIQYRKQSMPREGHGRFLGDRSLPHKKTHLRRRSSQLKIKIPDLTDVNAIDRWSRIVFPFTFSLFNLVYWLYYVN
T1 sequence (P34903 whole entry): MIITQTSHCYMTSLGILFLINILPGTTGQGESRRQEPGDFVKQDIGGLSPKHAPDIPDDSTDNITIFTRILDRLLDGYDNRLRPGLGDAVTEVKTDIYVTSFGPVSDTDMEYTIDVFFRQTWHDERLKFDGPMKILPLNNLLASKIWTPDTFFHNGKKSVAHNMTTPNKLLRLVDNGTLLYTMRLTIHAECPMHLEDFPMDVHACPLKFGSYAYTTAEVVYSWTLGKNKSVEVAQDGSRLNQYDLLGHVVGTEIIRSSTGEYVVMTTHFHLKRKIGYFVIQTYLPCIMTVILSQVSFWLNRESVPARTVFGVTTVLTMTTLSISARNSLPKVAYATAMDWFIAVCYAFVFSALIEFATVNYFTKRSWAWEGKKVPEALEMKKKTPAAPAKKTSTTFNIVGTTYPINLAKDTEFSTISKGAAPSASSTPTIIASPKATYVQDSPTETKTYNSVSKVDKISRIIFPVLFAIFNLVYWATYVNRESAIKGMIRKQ

[2] = biological target: GABA A receptor alpha-4/beta-3/gamma-2 (Homo sapiens, UniProt P18507+P28472+P48169); test: Displacement of [3H]-Ro 15-4513 from Homo sapiens (human) recombinant GABAA alpha4beta3gamma2 receptor expressed in Ltk- cells after 1 hr by liquid scintillation counting; format: cell-based
[3] = biological target: T2, GABA-A receptor; alpha-1/beta-3/gamma-2 (Homo sapiens, UniProt P14867+P18507+P28472); test: Displacement of [3H]-Ro 15-1788 from Homo sapiens (human) recombinant GABAA alpha1beta3gamma2 receptor expressed in Ltk- cells after 1 hr by liquid scintillation counting; format: cell-based
T2 sequence (P14867 whole entry): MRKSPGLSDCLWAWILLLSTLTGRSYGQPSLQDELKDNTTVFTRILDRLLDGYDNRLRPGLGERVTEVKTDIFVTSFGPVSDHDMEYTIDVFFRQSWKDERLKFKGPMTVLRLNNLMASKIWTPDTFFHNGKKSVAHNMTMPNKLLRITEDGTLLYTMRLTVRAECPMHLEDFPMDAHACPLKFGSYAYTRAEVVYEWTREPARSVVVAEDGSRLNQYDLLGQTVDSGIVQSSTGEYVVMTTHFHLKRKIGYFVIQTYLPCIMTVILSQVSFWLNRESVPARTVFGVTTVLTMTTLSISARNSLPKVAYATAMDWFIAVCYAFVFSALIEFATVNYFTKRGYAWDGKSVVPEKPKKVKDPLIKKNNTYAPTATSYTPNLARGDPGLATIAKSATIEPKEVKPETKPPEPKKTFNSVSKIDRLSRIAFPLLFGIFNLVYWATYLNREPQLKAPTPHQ
T2 sequence (P18507 whole entry): T1 sequence (P18507 whole entry)
T2 sequence (P28472 whole entry): T1 sequence (P28472 whole entry)

[4] = biological target: T3, GABA-A receptor; alpha-2/beta-3/gamma-2 (Homo sapiens, UniProt P18507+P28472+P47869); test: Displacement of [3H]-Ro 15-1788 from Homo sapiens (human) recombinant GABAA alpha2beta3gamma2 receptor expressed in Ltk- cells after 1 hr by liquid scintillation counting; format: cell-based
T3 sequence (P18507 whole entry): T1 sequence (P18507 whole entry)
T3 sequence (P28472 whole entry): T1 sequence (P28472 whole entry)
T3 sequence (P47869 whole entry): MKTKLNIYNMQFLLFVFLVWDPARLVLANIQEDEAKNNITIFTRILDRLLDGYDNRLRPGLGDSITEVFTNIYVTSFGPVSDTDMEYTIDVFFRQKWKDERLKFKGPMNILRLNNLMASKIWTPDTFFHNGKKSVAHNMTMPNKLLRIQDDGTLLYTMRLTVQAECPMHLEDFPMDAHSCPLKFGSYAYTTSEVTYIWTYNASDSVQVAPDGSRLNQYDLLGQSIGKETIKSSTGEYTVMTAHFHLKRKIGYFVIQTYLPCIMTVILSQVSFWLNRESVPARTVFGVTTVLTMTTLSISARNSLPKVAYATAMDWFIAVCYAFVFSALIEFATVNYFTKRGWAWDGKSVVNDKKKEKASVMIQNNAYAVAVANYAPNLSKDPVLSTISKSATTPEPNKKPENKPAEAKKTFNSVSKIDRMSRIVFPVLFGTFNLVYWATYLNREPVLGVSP

[5] = biological target: T4, GABA-A receptor; alpha-5/beta-3/gamma-2 (Homo sapiens, UniProt P18507+P28472+P31644); test: Displacement of [3H]-Ro 15-1788 from Homo sapiens (human) recombinant GABAA alpha5beta3gamma2 receptor expressed in Ltk- cells after 1 hr by liquid scintillation counting; format: cell-based
T4 sequence (P18507 whole entry): T1 sequence (P18507 whole entry)
T4 sequence (P28472 whole entry): T1 sequence (P28472 whole entry)
T4 sequence (P31644 whole entry): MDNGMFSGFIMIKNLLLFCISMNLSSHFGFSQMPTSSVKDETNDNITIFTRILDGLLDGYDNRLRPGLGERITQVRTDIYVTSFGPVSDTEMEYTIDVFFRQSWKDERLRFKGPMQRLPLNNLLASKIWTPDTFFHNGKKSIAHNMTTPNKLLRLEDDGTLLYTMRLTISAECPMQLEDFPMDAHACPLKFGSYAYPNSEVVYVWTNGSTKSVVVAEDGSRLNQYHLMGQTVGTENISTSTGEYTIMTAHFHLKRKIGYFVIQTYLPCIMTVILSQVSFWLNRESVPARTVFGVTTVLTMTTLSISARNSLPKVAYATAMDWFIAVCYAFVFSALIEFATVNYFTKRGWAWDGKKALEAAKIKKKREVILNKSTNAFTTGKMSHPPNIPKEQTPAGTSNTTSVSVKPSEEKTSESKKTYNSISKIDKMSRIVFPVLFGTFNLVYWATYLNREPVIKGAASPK

[6] = biological target: GABA-A receptor; alpha-6/beta-3/gamma-2 (Homo sapiens, UniProt P18507+P28472+Q16445); test: Displacement of [3H]-Ro 15-4513 from Homo sapiens (human) recombinant GABAA alpha6beta3gamma2 receptor expressed in Ltk- cells after 1 hr by liquid scintillation counting; format: cell-based
Homo sapiens = organism: Homo sapiens; test: Selectivity ratio of Ki for Homo sapiens (human) recombinant GABAA alpha1beta3gamma2 receptor to Ki for Homo sapiens (human) recombinant GABAA alpha5beta3gamma2 receptor

Chain of GABA-A receptor; alpha-6/beta-3/gamma-2 (Q16445 whole entry, one chain of several): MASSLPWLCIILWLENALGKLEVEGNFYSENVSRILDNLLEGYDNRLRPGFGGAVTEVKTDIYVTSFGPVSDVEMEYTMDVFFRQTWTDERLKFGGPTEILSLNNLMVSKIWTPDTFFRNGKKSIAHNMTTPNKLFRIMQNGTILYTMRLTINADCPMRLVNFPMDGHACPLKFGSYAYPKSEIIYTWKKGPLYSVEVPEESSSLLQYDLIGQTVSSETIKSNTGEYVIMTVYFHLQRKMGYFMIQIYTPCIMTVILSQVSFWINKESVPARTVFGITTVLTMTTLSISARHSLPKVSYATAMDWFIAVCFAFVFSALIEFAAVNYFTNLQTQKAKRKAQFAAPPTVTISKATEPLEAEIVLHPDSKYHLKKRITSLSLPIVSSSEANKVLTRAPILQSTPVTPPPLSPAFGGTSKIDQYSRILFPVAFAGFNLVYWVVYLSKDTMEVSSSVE
Chain of GABA A receptor alpha-4/beta-3/gamma-2 (P48169 whole entry, one chain of several): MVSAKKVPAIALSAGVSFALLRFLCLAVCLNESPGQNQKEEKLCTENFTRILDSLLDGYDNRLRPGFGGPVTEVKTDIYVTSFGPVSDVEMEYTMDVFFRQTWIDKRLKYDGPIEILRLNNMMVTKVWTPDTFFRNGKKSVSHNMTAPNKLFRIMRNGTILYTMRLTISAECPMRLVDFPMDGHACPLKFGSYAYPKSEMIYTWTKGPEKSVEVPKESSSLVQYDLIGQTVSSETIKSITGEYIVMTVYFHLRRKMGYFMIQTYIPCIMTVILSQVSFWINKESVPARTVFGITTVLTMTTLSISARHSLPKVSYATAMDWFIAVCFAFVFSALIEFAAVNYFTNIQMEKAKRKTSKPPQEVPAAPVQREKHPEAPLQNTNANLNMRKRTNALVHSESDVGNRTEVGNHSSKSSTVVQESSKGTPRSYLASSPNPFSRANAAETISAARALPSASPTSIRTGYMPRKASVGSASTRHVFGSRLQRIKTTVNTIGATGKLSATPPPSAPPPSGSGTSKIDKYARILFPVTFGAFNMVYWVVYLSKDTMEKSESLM

Compound | Ki [1] [nM] | Ki [2] [nM] | Ki [3] [nM] | Ki [4] [nM] | Ki [5] [nM] | Ki [6] [nM] | Ratio Ki (Homo sapiens)
O=C(OCC(F)(F)F)c1ncn2c1[C@@H]1CCCN1C(=O)c1cc(Br)ccc1-2 | 245 | 291 | > 333 | > 333 | 57 | > 333 | 
CC(C)(C)OC(=O)c1ncn2c1[C@@H]1CCCN1C(=O)c1cc(Br)ccc1-2 | 49 | 29 | 150 | 123 | 4 | 72 | 37.5
C#Cc1ccc2c(c1)C(=O)N1CCC[C@H]1c1c(C(=O)OCC(F)(F)F)ncn1-2 | 169 | 345 | 299 | 172 | 8.3 | 320 | 36
CC(C)(C)OC(=O)c1ncn2c1[C@@H]1CCCN1C(=O)c1cc(-c3ccccc3)ccc1-2 | 59 | 114 | 28 | 129 | 13 | > 333 | 2.2
CCOC(=O)c1ncn2c1[C@@H]1CCCN1C(=O)c1cc(Br)ccc1-2 |  |  |  |  |  |  | 49
C#Cc1ccc2c(c1)C(=O)N1CCC[C@H]1c1c(C(=O)OC(C)(C)C)ncn1-2 | > 333 | 213 | > 333 | > 333 | 40 | 308 | 
CC(C)(C)OC(=O)c1ncn2c1[C@@H]1CCCN1C(=O)c1cc(-c3cccs3)ccc1-2 | 123 | 119 | 16 | 120 | 12 | > 333 | 1.3
CC(C)(C)OC(=O)c1ncn2c1[C@@H]1CCCN1C(=O)c1cc(C#C[Si](C)(C)C)ccc1-2 | > 333 | 175 | > 333 | > 333 | 103 | > 333 | 
C[Si](C)(C)C#Cc1ccc2c(c1)C(=O)N1CCC[C@H]1c1c(C(=O)OCC(F)(F)F)ncn1-2 | > 333 | > 333 | > 333 | > 333 | 137 | > 333 | 
C=Cc1ccc2c(c1)C(=O)N1CCC[C@H]1c1c(C(=O)OC(C)(C)C)ncn1-2 | 26 | 26 | 50 | 35 | 2.4 | 58 | 20.8
CC(C)(C)OC(=O)c1ncn2c1[C@@H]1CCCN1C(=O)c1cc(-c3ccco3)ccc1-2 | 15.6 | 11.6 | 1.8 | 16.2 | 1.7 | 46 | 1.1
CCOC(=O)c1ncn2c1[C@@H]1CCCN1C(=O)c1cc(C#C[Si](C)(C)C)ccc1-2 |  |  |  |  |  |  | 50
O=C(OCC(F)(F)F)c1ncn2c1[C@@H]1CCCN1C(=O)c1cc(-c3ccccc3)ccc1-2 | > 333 | > 333 | 141 | > 333 | > 333 | > 333 | 
C=Cc1ccc2c(c1)C(=O)N1CCC[C@H]1c1c(C(=O)OCC(F)(F)F)ncn1-2 | 65 | 175 | 94 | 55 | 6.9 | 292 | 13.6
O=C(OCC(F)(F)F)c1ncn2c1[C@@H]1CCCN1C(=O)c1ccccc1-2 | 13 | > 333 | 34 | 34 | 4.3 | > 333 | 7.9
C#Cc1ccc2c(c1)C(=O)N1CCC[C@H]1c1c(C(=O)OCC)ncn1-2 |  |  |  |  |  |  | 45
CCOC(=O)c1ncn2c1[C@@H]1CCCN1C(=O)c1cc(OC)ccc1-2 |  |  |  |  |  |  | 108
